Measurements as given in ChEMBL document CHEMBL1201862, “PubChem BioAssay data set” (2004).
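Grown in 96-well plates, cells were treated for 48 hours with each compound at five concentrations. Insufficient inhibition: endpoint recorded as highest concentration tested. The concentration for 50% growth inhibition is given as GI50.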 Active and inactive are the calls of the source. Rule as the data show it: active = GI50 up to about 1.1 µM and inactive = higher.

Columns and labels:
Experiment in all cases: inhibition of tumour cell growth, NCI panel, 48 h
ACHN = test system: ACHN
HCT-15 = test system: HCT-15
UACC-257 = test system: UACC-257
SF-295 = test system: SF-295
SK-MEL-5 = test system: SK-MEL-5
KM12 = test system: KM12
SF-539 = test system: SF-539
SW-620 = test system: SW-620
NCI-H226 = test system: NCI-H226
RPMI-8226 = test system: RPMI-8226
CAKI-1 = test system: CAKI-1
NCI-H23 = test system: NCI-H23
HCC 2998 = test system: HCC 2998
IGROV-1 = test system: IGROV-1
NCI-H522 = test system: NCI-H522
SF-268 = test system: SF-268

Measured: GI50

c1ccc(-c2nnc3nn4c(-c5ccccc5)cnnc4c3c2-c2ccccc2)cc1
inactive: ACHN 55.6 µM | UACC-257 96.8 µM | SF-295 74 µM | SK-MEL-5 67.1 µM | KM12 > 100 µM | SF-539 26.3 µM | SW-620 > 100 µM | NCI-H226 > 100 µM | RPMI-8226 > 100 µM | CAKI-1 23.7 µM | NCI-H23 > 100 µM | HCC 2998 48.2 µM
> 100 µM: HCT-15

COC(=O)c1ccccc1/N=C/c1ccc(N(CCC#N)S(=O)(=O)c2ccccc2)cc1
> 100 µM: HCT-15
inactive: IGROV-1 > 100 µM | ACHN > 100 µM | UACC-257 > 100 µM | SF-295 > 100 µM | NCI-H522 > 100 µM | SK-MEL-5 > 100 µM | KM12 > 100 µM | SF-539 > 100 µM | SF-268 > 100 µM | SW-620 > 100 µM | NCI-H226 > 100 µM | RPMI-8226 > 100 µM | CAKI-1 > 100 µM | NCI-H23 > 100 µM

CCN1CCC(O)(c2ccc(Cl)cc2)C(C(=O)c2ccc(Cl)cc2)C1 (configuration not stated)
inactive: IGROV-1 > 100 µM | ACHN > 100 µM | UACC-257 > 100 µM | SF-295 > 100 µM | NCI-H522 20.4 µM | SK-MEL-5 > 100 µM | KM12 > 100 µM | SF-539 26.2 µM | SF-268 > 100 µM | SW-620 70.3 µM | RPMI-8226 24.4 µM | NCI-H23 > 100 µM | HCC 2998 > 100 µM

CCCc1nn(C)c(CCC(=O)N(Cc2ccccc2)Cc2ccccc2)c1CC
inactive: IGROV-1 > 100 µM | ACHN > 100 µM | UACC-257 > 100 µM | SF-295 > 100 µM | NCI-H522 > 100 µM | SK-MEL-5 > 100 µM | KM12 > 100 µM | SF-539 > 100 µM | SF-268 > 100 µM | SW-620 > 100 µM | NCI-H226 > 100 µM | RPMI-8226 > 100 µM | NCI-H23 > 100 µM | HCC 2998 > 100 µM
> 100 µM: HCT-15

Cc1ccccc1C(C#N)/C(=N/NC(=O)C(=O)NN)C(=O)Nc1cccc(C(F)(F)F)c1 (configuration not stated)
inactive: IGROV-1 > 100 µM | ACHN > 100 µM | UACC-257 > 100 µM | SF-295 > 100 µM | NCI-H522 > 100 µM | SK-MEL-5 > 100 µM | KM12 > 100 µM | SF-539 > 100 µM | SF-268 > 100 µM | SW-620 > 100 µM | NCI-H226 > 100 µM | RPMI-8226 > 100 µM | CAKI-1 > 100 µM | NCI-H23 > 100 µM | HCC 2998 > 100 µM
> 100 µM: HCT-15

CN1C(=O)C(Cl)(C(Cl)(Cl)S(=O)(=O)O)C(=O)c2ccccc21.c1ccncc1 (configuration not stated)
inactive: IGROV-1 > 100 µM | ACHN 76.4 µM | UACC-257 > 100 µM | SF-295 > 100 µM | NCI-H522 44.9 µM | SK-MEL-5 > 100 µM | KM12 > 100 µM | SF-539 > 100 µM | SF-268 > 100 µM | SW-620 > 100 µM | NCI-H226 33.7 µM | RPMI-8226 > 100 µM | CAKI-1 > 100 µM | NCI-H23 > 100 µM | HCC 2998 > 100 µM

COC(=O)C1=C(c2ccc(OC)c(OC)c2)OC(c2ccc(OC)c(OC)c2)C1 (configuration not stated)
inactive: IGROV-1 25.1 µM | ACHN 25.4 µM | UACC-257 36.3 µM | SF-295 27.6 µM | SK-MEL-5 15.6 µM | KM12 32.7 µM | SF-539 33.4 µM | SF-268 35.6 µM | SW-620 35.3 µM | NCI-H226 37 µM | RPMI-8226 37.6 µM | NCI-H23 48.5 µM | HCC 2998 66.1 µM
25.2 µM: HCT-15

Cc1cc(O)nc(NNC(C#N)c2ccccc2O)n1 (configuration not stated)
11.9 µM: HCT-15
inactive: IGROV-1 21 µM | ACHN 16.6 µM | UACC-257 39 µM | SF-295 38.4 µM | NCI-H522 41.4 µM | SK-MEL-5 19.9 µM | KM12 35.6 µM | SF-539 10.4 µM | SF-268 13 µM | SW-620 44.6 µM | NCI-H226 31.1 µM | RPMI-8226 22 µM | CAKI-1 30.8 µM | NCI-H23 22.7 µM

O=C(N/C(=C\c1cccc([N+](=O)[O-])c1)c1nc2cc([N+](=O)[O-])ccc2[nH]1)c1ccccc1
inactive: IGROV-1 21.4 µM | ACHN 28.4 µM | SF-295 40.4 µM | NCI-H522 18.3 µM | SK-MEL-5 20.7 µM | KM12 29.6 µM | SF-539 29.4 µM | SF-268 19.7 µM | SW-620 35.1 µM | CAKI-1 30.4 µM | NCI-H23 27.3 µM | HCC 2998 33.5 µM
22.1 µM: HCT-15

CC(C)C(Nc1c2ccccc2nc2ccccc12)C(=O)O (configuration not stated)
inactive: IGROV-1 > 100 µM | ACHN 49.2 µM | UACC-257 > 100 µM | SF-295 > 100 µM | NCI-H522 > 100 µM | KM12 > 100 µM | SF-539 > 100 µM | SF-268 > 100 µM | SW-620 > 100 µM | NCI-H226 > 100 µM | RPMI-8226 32.5 µM | CAKI-1 > 100 µM | NCI-H23 > 100 µM | HCC 2998 > 100 µM
> 100 µM: HCT-15

COc1ccc(-c2cc(=O)c3c(O)cc(O)cc3o2)c(OC)c1OC
inactive: IGROV-1 > 100 µM | ACHN > 10 µM | UACC-257 > 100 µM | SF-295 87.5 µM | NCI-H522 52.1 µM | KM12 53.1 µM | SF-539 > 100 µM | SF-268 85.3 µM | SW-620 71.1 µM | NCI-H226 > 100 µM | RPMI-8226 17.6 µM | CAKI-1 60.8 µM | NCI-H23 > 100 µM | HCC 2998 92 µM

COc1ccc2nc3ccccc3c(NCCN(CCCl)CCCl)c2c1
active: ACHN 0.336 µM | SF-295 0.614 µM | NCI-H522 0.348 µM | SF-539 0.608 µM | SF-268 0.783 µM | SW-620 0.238 µM | NCI-H226 1 µM | CAKI-1 0.251 µM | NCI-H23 0.156 µM
inactive: IGROV-1 1.3 µM | UACC-257 1.3 µM | KM12 1.34 µM | HCC 2998 1.28 µM

O=c1cc(-c2ccccc2)oc2cc(O)cc(O)c12 [CHRYSIN]
inactive: IGROV-1 > 10 µM | ACHN 15.2 µM | UACC-257 21.1 µM | SF-295 14.9 µM | NCI-H522 15.9 µM | SK-MEL-5 10.1 µM | KM12 15.5 µM | SF-539 15.1 µM | SF-268 23.1 µM | NCI-H226 20.6 µM | RPMI-8226 16 µM | NCI-H23 20.9 µM | HCC 2998 19.8 µM
20.4 µM: HCT-15

CC[C@H](C)C(=O)O[C@H]1C[C@@H](C)C=C2C=C[C@H](C)[C@H](CC[C@@H]3C[C@@H](O)CC(=O)O3)[C@H]21 [LOVASTATIN]
active: NCI-H23 1.02 µM
inactive: IGROV-1 5.96 µM | ACHN 1.76 µM | UACC-257 20 µM | SK-MEL-5 6.7 µM | KM12 > 30 µM | SW-620 7.36 µM | NCI-H226 11.9 µM | RPMI-8226 > 30 µM | CAKI-1 1.17 µM | HCC 2998 15.1 µM
3.12 µM: HCT-15
